Test results as given in patent publication US20040038199A1, “Phenotyping assay and reagents therefor” (priority 2000, published 2004).
pEC50: −log10 of the molar value. Read-outs that look alike come from different tables or passages of the source.

Experiments:
Assay type in all cases: cell-based, HIV-1
[1] = tested on: Virus 3.1, 3.2, 3.3 (recombinants by FPH or RVA); experiment: MTT-reduction cell viability drug susceptibility assay, viruses 3.1-3.3 (Table 3B); conditions: for fold resistance: Table 3B, relative to WT
Method: (§1) As previously discussed, recombinant virus produced by the method of the present invention may be used in drug sensitivity assays. A suitable drug sensitivity assay is described in Pauwels et al. (1988) and is an MTT-reduction colorimetric cell viability assay. Cells infected with the virus are plated into the wells of tissue culture plates and incubated with the anti-viral drug to be tested. After incubation, MTT (3-(4,5-dimethylthiazol-2-yl)-2,5diphenyltetrazolium bromide) is added to the cell culture. Only live cells produce the blue formazan product after incubation with MTT. This product is detectable by reading the optical absorbance at 540-590 nm, so the absorbance reading gives a measure of the cells which have been protected from the virus by the anti-viral drug. Viral drug resistance results in a decrease in surviving cells and a decrease in absorbance at 540-590 nm.
(§2) The LTR was added to the nested products by PMR prior to transfection. The PMR reactions successfully added the LTR sequences to the nested products (FIG. 9). The first round RT-PCR reactions were also used as templates to generate products for RVA by cotransfection with pHXBΔCSPRTC. Triplicate PCR products were cotransfected into MT4 cells with the linearised plasmid pHXBTOPO1, in the case of the PMR products, and with linearised pHXBΔCSPRTC in for the RVA products. Viral cytopathic effect was observed and titratable virus was harvested in the supernatants. No virus was isolated from virus 2 using FPH and only one of the triplicate cultures from virus 3 yielded infectious virus. All of the RVA cultures produced virus.
(§3) In order to determine whether the extra sequences in the FPH recombinants contain determinants of susceptibility, the recombinant viruses were tested against several drugs. Drug susceptibility was determined by the 3-(4,5dimethylthiazol-2-yl)-2,5-diphenyltetrazolium bromide (MTT)-reduction calorimetric cell viability assay described previously (Pauwels et al. 1988; Robinson et al., 2000). Changes in susceptibility were defined as fold increase in IC50 relative to WT (HXB2). Nucleotide sequences were determined using ABI 3700 capillary sequencers and Big Dye terminators. […] Virus 1 also gave a 2.2-fold (Table 3A) or 4-fold (Table 3B) higher susceptibility to IDV and 2.9-fold (Table 3A) or 3.2-fold higher susceptibility to APV when generated by RVA.

[2] = tested on: Virus 5.1 (FPH), 5.2 (RVA); experiment: MTT-reduction cell viability drug susceptibility assay, viruses 5.1 and 5.2 (Table 3B); conditions: for pEC50: Human immunodeficiency virus 1, Table 3B; for fold resistance: Table 3B, relative to WT
Method: as §1, §2, §3

[3] = tested on: Virus 4.1, 4.2, 4.3 (recombinants by RVA); experiment: MTT-reduction cell viability drug susceptibility assay, viruses 4.1-4.3 (Table 3B); conditions: for pEC50: Human immunodeficiency virus 1, Table 3B; for fold resistance: Table 3B, relative to WT
Method: as §1, §2, §3

[4] = tested on: Virus 2 (recombinant generated from plasma of Subject 2 by RVA); experiment: MTT-reduction cell viability drug susceptibility assay, recombinant Virus 2 (RVA)
Method: as §1
(§4) In this experiment, plasma from three HIV-1 infected subjects experiencing virological failure on PI-containing therapy regimens was used as the basis for the FPH to generate recombinant virus. […] Virus from Subject 2 had L10I, M46I, I50V and a Lp1′F mutation at the p1/p6 protease cleavage site, all of which are mutations typical of high level APV resistance.
as §2, §3

[5] = tested on: Virus 1 (recombinant generated from plasma of Subject 1 by FPH or RVA); experiment: MTT-reduction cell viability drug susceptibility assay, recombinant Virus 1 (FPH or RVA); conditions: for fold resistance: Table 3A, relative to WT (HXB2); for fold higher susceptibility when generated by RVA than when generated by FPH: virus 1
Method: as §1, §4, §2, §3

[6] = tested on: WT (HXB2) generated by FPH or RVA; experiment: MTT-reduction cell viability drug susceptibility assay, WT (Table 3B); conditions: for pEC50: Human immunodeficiency virus 1, HXB2, Table 3B; for fold resistance: Table 3B
Method: as §1, §3

[7] = tested on: Virus 3 (recombinant generated from plasma of Subject 3 by FPH or RVA); experiment: MTT-reduction cell viability drug susceptibility assay, recombinant Virus 3 (FPH or RVA); conditions: for pEC50: Human immunodeficiency virus 1, Table 3A; for fold resistance: Table 3A, relative to WT (HXB2)
Method: as §1, §4, §2, §3

[8] = tested on: HXB2; experiment: MTT-reduction cell viability drug susceptibility assay, wild type HXB2 (Table 3A)
Method: as §1, §3

[9] = tested on: recombinant viruses generated by FPH or RVA; experiment: Comparison of drug susceptibility of FPH generated and RVA generated viruses; conditions: two separate experiments (tables 3A and B)
Method: as §1
In order to determine whether the extra sequences in the FPH recombinants contain determinants of susceptibility, the recombinant viruses were tested against several drugs. Drug susceptibility was determined by the 3-(4,5dimethylthiazol-2-yl)-2,5-diphenyltetrazolium bromide (MTT)-reduction calorimetric cell viability assay described previously (Pauwels et al. 1988; Robinson et al., 2000). […] Nucleotide sequences were determined using ABI 3700 capillary sequencers and Big Dye terminators. […]

[10] = Human immunodeficiency virus 1, Table 3B, Virus 3.1, method FPH, read-out: Drug EC50
[11] = Human immunodeficiency virus 1, Table 3B, Virus 3.2, method FPH, read-out: Drug EC50
[12] = Human immunodeficiency virus 1, Table 3B, Virus 3.3, method FPH, read-out: Drug EC50
[13] = Human immunodeficiency virus 1, read-out: Drug EC50, Table 3B, Virus 3.1, method RVA

Compound	pEC50 [1, 10]	pEC50 [1, 11]	pEC50 [1, 12]	pEC50 [1, 13]	fold resistance ([1]; Virus 3.1, method FPH)	fold resistance ([1]; Virus 3.1, method RVA)	fold resistance ([1]; Virus 3.2, method FPH)	fold resistance ([1]; Virus 3.3, method FPH)	pEC50 ([2]; Virus 5.1, method FPH)	pEC50 ([2]; Virus 5.2, method RVA)	fold resistance ([2]; Virus 5.1, method FPH)	fold resistance ([2]; Virus 5.2, method RVA)	pEC50 ([3]; Virus 4.1, method RVA)	pEC50 ([3]; Virus 4.2, method RVA)	pEC50 ([3]; Virus 4.3, method RVA)	fold resistance ([3]; Virus 4.1, method RVA)	fold resistance ([3]; Virus 4.2, method RVA)	fold resistance ([3]; Virus 4.3, method RVA)	fold higher susceptibility when generated by RVA than when generated by FPH ([5]; Table 3B experiment) [fold]	pEC50 ([6]; method FPH)	other results
CC(C)(C)NC(=O)[C@@H]1CN(Cc2cccnc2)CCN1C[C@@H](O)C[C@@H](Cc1ccccc1)C(=O)N[C@H]1c2ccccc2C[C@H]1O [IDV, indinavir]	7.22	7.24	7.27	7.94	(2.0) fold	(−2.7) fold	(1.9) fold	(1.7) fold	5.65	5.82	(72) fold	(49) fold	7.19	7.62	7.41	(2.1) fold	(−1.3) fold	(1.3) fold	4	7.51	pEC50 ([1]; Human immunodeficiency virus 1, Table 3B, Virus 3.2, method RVA, read-out: Drug EC50): 7.78; fold resistance ([1]; Virus 3.2, method RVA): (−1.9) fold; pEC50 ([4]; Human immunodeficiency virus 1, Table 3A, Virus 2, method RVA): 7.73; fold resistance ([4]; Table 3A, Virus 2, method RVA, relative to WT (HXB2)): (0.63) fold; pEC50 ([5]; Human immunodeficiency virus 1, Table 3A, Virus 1, method RVA, read-out: Drug EC50): 7.85; pEC50 ([5]; Human immunodeficiency virus 1, read-out: Drug EC50, Table 3A, Virus 1, method FPH): 7.51; fold resistance ([5]; Virus 1, method FPH): (1.1) fold; fold resistance ([5]; Virus 1, method RVA): (0.48) fold; fold higher susceptibility when generated by RVA than when generated by FPH ([5]; Table 3A experiment): 2.2 fold; pEC50 ([6]; method RVA): 7.51; fold resistance ([6]; method FPH (reference)): (1.0) fold; fold resistance ([6]; method RVA (reference)): (1.0) fold; pEC50 ([7]; Virus 3, method FPH): 5.90; pEC50 ([7]; Virus 3, method RVA): 6.16; fold resistance ([7]; Virus 3, method FPH): (42) fold; fold resistance ([7]; Virus 3, method RVA): (23) fold; fold resistance ([8]; HXB2 wild type (reference)): (1.0) fold; pEC50 ([8]; Human immunodeficiency virus 1, HXB2 wild type): 7.53
Cc1cn([C@H]2C[C@H](N=[N+]=[N-])[C@@H](CO)O2)c(=O)[nH]c1=O [ZDV, zidovudine]	7.12	7.19	7.45	7.91	(2.7) fold	(−2.5) fold	(2.3) fold	(1.2) fold	7.32	7.78	(1.7) fold	(−1.9) fold	< 5.30	< 5.30	< 5.30	(>163) fold	(>163) fold	(>163) fold	4.8	7.55	resistance, fold higher than wild-type ([4]; Virus 2 obtained via the RVA, Table 3B experiment): > 84 fold; pEC50 ([6]; method RVA): 7.51; fold resistance ([6]; method FPH (reference)): (1.0) fold; fold resistance ([6]; method RVA (reference)): (1.0) fold; difference in susceptibility between the two techniques (RVA vs FPH) ([7]; virus 3, Table 3B experiment): 2.9 fold; Susceptibility in FPH generated versus RVA generated viruses [9]: lower in the FPH generated than the RVA generated viruses
